Patent publication US8846719B2, “Isoxazolo-pyridine derivatives” (Roche Palo Alto LLC, priority 2007, dated 2014)

Target: human GABA A receptor α5β3γ2 (Homo sapiens (Human), UniProt P18507+P31644)
Assay: [3H]flumazenil competition binding assay, human GABA A α5β3γ2 receptors expressed in HEK293 cells
Settings: human receptor; displacement of [3H]flumazenil (0.5 nM); means of two determinations; read-out: hKi GABAAa5
Method in brief: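 Competition for [3H]flumazenil binding on membranes of HEK293 cells transiently transfected with human α5β3γ2 receptors, in Krebs-tris buffer pH 7.5.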

Row | Compound | Ki [nM]
1 | Cc1onc(-c2ccccc2F)c1COc1ccc(C(=O)NC(C)C)cn1 [Example 86, 6-[3-(2-Fluoro-phenyl)-5-methyl-isoxazol-4-ylmethoxy]-N-isopropyl-nicotinamide] | 3.6
2 | C[C@H](CO)NC(=O)c1ccc(OCc2conc2-c2ccc(Cl)cc2)nc1 [Example 354, 6-[3-(4-Chloro-phenyl)-isoxazol-4-ylmethoxy]-N—((R)-2-hydroxy-1-methyl-ethyl)-nicotinamide] | 10.7
3 | Cc1onc(-c2ccccc2)c1COc1cc(C(F)(F)F)c(C(=O)NC(C)C)cn1 [Example 62, N-Isopropyl-6-(5-methyl-3-phenyl-isoxazol-4-ylmethoxy)-4-trifluoromethyl-nicotinamide] | 14.6
4 | O=C(NCCO)c1ccc(OCc2c(-c3ccc(F)cc3)noc2C(F)(F)F)nc1 [Example 139, 6-[3-(4-Fluoro-phenyl)-5-trifluoromethyl-isoxazol-4-ylmethoxy]-N-(2-hydroxy-ethyl)-nicotinamide] | 16.5
5 | Cc1onc(-c2ccccn2)c1COc1ccc(C(=O)NC(C)(C)CO)cn1 [Example 281, (2-Hydroxy-1,1-dimethyl-ethyl)-6-(5-methyl-3-pyridin-2-yl-isoxazol-4-ylmethoxy)-nicotinamide] | 4
6 | O=C(NC1CCOCC1)c1ccc(OCc2conc2-c2ccc(Cl)cc2)nc1 [Example 345, 6-[3-(4-Chloro-phenyl)-isoxazol-4-ylmethoxy]-N-(tetrahydro-pyran-4-yl)-nicotinamide] | 6.4
7 | O=C(NC1CCOCC1)c1ccc(OCc2c(-c3ccc(F)cc3)noc2C(F)(F)F)nc1 [Example 144, 6-[3-(4-Fluoro-phenyl)-5-trifluoromethyl-isoxazol-4-ylmethoxy]-N-(tetrahydro-pyran-4-yl)-nicotinamide] | 12.5
8 | CCNC(=O)c1ccc(OCc2c(-c3ccc(F)cn3)noc2C)nc1 [Example 297, Ethyl-6-[3-(5-fluoro-pyridin-2-yl)-5-methyl-isoxazol-4-ylmethoxy]-nicotinamide] | 0.5
9 | Cc1onc(-c2cccc(Cl)c2)c1COc1ccc(C(=O)NCC2CC2)cn1 [Example 99, 6-[3-(3-Chloro-phenyl)-5-methyl-isoxazol-4-ylmethoxy]-N-cyclopropylmethyl-nicotinamide] | 8.1
10 | Cc1nc(OCc2c(-c3ccccc3)noc2C)c(Br)cc1C(=O)NC1CCOCC1 [Example 67, 5-Bromo-2-methyl-6-(5-methyl-3-phenyl-isoxazol-4-ylmethoxy)-N-(tetrahydro-pyran-4-yl)-nicotinamide] | 47.3
11 | Cc1onc(-c2ccncc2)c1COc1ccc(C(=O)NC2CCOCC2)cn1 [Example 150, 6-(5-Methyl-3-pyridin-4-yl-isoxazol-4-ylmethoxy)-N-(tetrahydro-pyran-4-yl)-nicotinamide] | 5.6
12 | Cc1onc(-c2ccccn2)c1COc1ccc(C(=O)NCC(F)(F)F)cn1 [Example 275, 6-(5-Methyl-3-pyridin-2-yl-isoxazol-4-ylmethoxy)-N-(2,2,2-trifluoro-ethyl)-nicotinamide] | 1.1
13 | O=C(NCCCO)c1ccc(OCc2conc2-c2ccc(Cl)cc2)nc1 [Example 348, 6-[3-(4-Chloro-phenyl)-isoxazol-4-ylmethoxy]-N-(3-hydroxy-propyl)-nicotinamide] | 10.3
14 | Cc1onc(-c2ccccc2)c1COc1ccc(C(=O)N2CCC(O)CC2)cn1 [Example 187, (4-Hydroxy-piperidin-1-yl)-[6-(5-methyl-3-phenyl-isoxazol-4-ylmethoxy)-pyridin-3-yl]-methanone] | 73.4
15 | Cc1onc(-c2ccc(F)cc2)c1CNc1ccc(C(=O)NCC(F)(F)F)cn1 [Example 173, 6-{[3-(4-Fluoro-phenyl)-5-methyl-isoxazol-4-ylmethyl]-amino}-N-(2,2,2-trifluoro-ethyl)-nicotinamide] | 5.9

Now from value to compound:

Row | Ki [nM] | Compound
16 | 41.3 | Cc1onc(-c2cccc(F)c2)c1COc1ccc(C(=O)NC2CC2)cn1 [Example 92, N-Cyclopropyl-6-[3-(3-fluoro-phenyl)-5-methyl-isoxazol-4-ylmethoxy]-nicotinamide]
17 | 80.8 | Cc1onc(-c2ccccc2)c1COc1ccc(C(=O)N2CCOCC2(C)C)cn1 [Example 71, (3,3-Dimethyl-morpholin-4-yl)-[6-(5-methyl-3-phenyl-isoxazol-4-ylmethoxy)-pyridin-3-yl]-methanone]
18 | 23.6 | Cc1onc(-c2ccccc2)c1COc1ccc(C(=O)N2CCOCC2)cn1 [Example 53, [6-(5-Methyl-3-phenyl-isoxazol-4-ylmethoxy)-pyridin-3-yl]-morpholin-4-yl-methanone]
19 | 15.4 | Cc1onc(-c2cccc(F)c2)c1CNc1ccc(C(=O)NC(C)C)cn1 [Example 169, 6-{[3-(3-Fluoro-phenyl)-5-methyl-isoxazol-4-ylmethyl]-amino}-N-isopropyl-nicotinamide]
20 | 13.7 | CCNC(=O)CN1CCCC(NC(=O)c2ccc(OCc3c(-c4ccccc4)noc3C)nc2)C1 (stereo not drawn) [Example 42, N-(1-Ethylcarbamoylmethyl-piperidin-3-yl)-6-(5-methyl-3-phenyl-isoxazol-4-ylmethoxy)-nicotinamide]
21 | 0.6 | Cc1onc(-c2ccccn2)c1COc1ccc(C(=O)NC(C)C)cn1 [Example 273, N-Isopropyl-6-(5-methyl-3-pyridin-2-yl-isoxazol-4-ylmethoxy)-nicotinamide]
22 | 0.5 | Cc1onc(-c2ccc(Cl)cc2)c1COc1ccc(C(=O)N[C@H]2CCC[C@@H]2O)cn1 (single isomer, unassigned) [Example 260, 6-[3-(4-Chloro-phenyl)-5-methyl-isoxazol-4-ylmethoxy]-N-((1S,2S)-2-hydroxy-cyclopentyl)-nicotinamide or 6-[3-(4-chloro-phenyl)-5-methyl-isoxazol-4-ylmethoxy]-N-((1R,2R)-2-hydroxy-cyclopentyl)-nicotinamide]
23 | 3.9 | Cc1onc(-c2ccccc2)c1COc1ccc(C(=O)NC2CCCC2)cn1 [Example 29, N-Cyclopentyl-6-(5-methyl-3-phenyl-isoxazol-4-ylmethoxy)-nicotinamide]
24 | 0.5 | Cc1onc(-c2ccc(Cl)cc2)c1COc1ccc(C(=O)N[C@@H](C)CO)cn1 [Example 257, 6-[3-(4-Chloro-phenyl)-5-methyl-isoxazol-4-ylmethoxy]-N—((S)-2-hydroxy-1-methyl-ethyl)-nicotinamide]
25 | 19.4 | Cc1onc(-c2ccccc2)c1COc1ccc(C(=O)NC[C@H]2CC(=O)NO2)cn1 [Example 18]
26 | 12.1 | Cc1onc(-c2ccccc2)c1COc1ccc(C(=O)Nc2ccc(F)cc2)cn1 [Example 49, N-(4-Fluoro-phenyl)-6-(5-methyl-3-phenyl-isoxazol-4-ylmethoxy)-nicotinamide]
27 | 36.7 | Cc1onc(-c2ccccc2)c1COc1ccc(C(=O)N(C)S(=O)(=O)C2CC2)cn1 [Example 236, Cyclopropanesulfonic acid methyl-[6-(5-methyl-3-phenyl-isoxazol-4-ylmethoxy)-pyridine-3-carbonyl]-amide]
28 | 3.1 | CCNC(=O)c1ccc(OCc2c(-c3ccncn3)noc2C)nc1 [Example 317, N-Ethyl-6-(5-methyl-3-pyrimidin-4-yl-isoxazol-4-ylmethoxy)-nicotinamide]
29 | 3.1 | Cc1cccc(-c2noc(C)c2COc2ccc(C(=O)NC(C)C)cn2)c1 [Example 250, N-Isopropyl-6-(5-methyl-3-m-tolyl-isoxazol-4-ylmethoxy)-nicotinamide]
30 | 8.2 | Cc1onc(-c2ccccc2)c1COc1ccc(C(=O)NCCCCCCO)cn1 [Example 222, N-(6-Hydroxy-hexyl)-6-(5-methyl-3-phenyl-isoxazol-4-ylmethoxy)-nicotinamide]
